Results: PubChem BioAssay (NCI)
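Results reflect a 48-hour exposure of cells in 96-well plates to compound at five concentrations. GI50 is the concentration that inhibits growth by half. TGI: total growth inhibition.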

How the values were obtained:
Assay in all cases: inhibition of tumour cell growth, NCI panel, 48 h; in the data active means GI50 below about 0.43 µM; inactive means the rest
SN12C renal = system: SN12C renal
SK-MEL-5 melanoma = system: SK-MEL-5 melanoma
NCI-H226 lung = system: NCI-H226 lung
OVCAR-3 ovarian = system: OVCAR-3 ovarian
MDA-MB-231 breast = system: MDA-MB-231 breast
MCF7 breast = system: MCF7 breast
BT-549 breast = system: BT-549 breast
MOLT-4 leukemia = system: MOLT-4 leukemia
A549 NSCLC = system: A549 NSCLC
HOP-62 NSCLC = system: HOP-62 NSCLC
PC-3 prostate = system: PC-3 prostate
OVCAR-4 ovarian = system: OVCAR-4 ovarian
LOX IMVI melanoma = system: LOX IMVI melanoma
HCC-2998 colon = system: HCC-2998 colon
SK-MEL-28 melanoma = system: SK-MEL-28 melanoma
CAKI-1 renal = system: CAKI-1 renal
DU-145 prostate = system: DU-145 prostate
SF-268 CNS = system: SF-268 CNS
NCI-H460 lung = system: NCI-H460 lung
786-0 renal = system: 786-0 renal
NCI-H522 lung = system: NCI-H522 lung
SW-620 colon = system: SW-620 colon
UACC-62 melanoma = system: UACC-62 melanoma
HOP-92 NSCLC = system: HOP-92 NSCLC
NCI/ADR-RES ovarian = system: NCI/ADR-RES ovarian
RXF 393 renal = system: RXF 393 renal
SK-OV-3 ovarian = system: SK-OV-3 ovarian
HL-60(TB) leukemia = system: HL-60(TB) leukemia
NCI-H23 lung = system: NCI-H23 lung
COLO 205 colon = system: COLO 205 colon
EKVX NSCLC = system: EKVX NSCLC
SF-295 CNS = system: SF-295 CNS
HCT-15 colon = system: HCT-15 colon
HT29 colon = system: HT29 colon
HCT-116 colon = system: HCT-116 colon
MDA-MB-435 = system: MDA-MB-435
CCRF-CEM leukemia = system: CCRF-CEM leukemia
OVCAR-5 ovarian = system: OVCAR-5 ovarian
U251 CNS = system: U251 CNS
HS 578T breast = system: HS 578T breast
M14 melanoma = system: M14 melanoma
UO-31 renal = system: UO-31 renal
OVCAR-8 ovarian = system: OVCAR-8 ovarian
SNB-19 CNS = system: SNB-19 CNS
ACHN renal = system: ACHN renal
SK-MEL-2 melanoma = system: SK-MEL-2 melanoma
UACC-257 melanoma = system: UACC-257 melanoma
SNB-75 CNS = system: SNB-75 CNS
SF-539 CNS = system: SF-539 CNS
KM12 colon = system: KM12 colon
IGROV1 ovarian = system: IGROV1 ovarian
TK-10 renal = system: TK-10 renal
K-562 leukemia = system: K-562 leukemia
SR leukemia = system: SR leukemia
T-47D breast = system: T-47D breast

CC(=O)C1C(=O)C(=O)N(c2ccc([N+](=O)[O-])cc2[N+](=O)[O-])C1=O (configuration not stated)
> 100 µM: TGI (SN12C renal) | TGI (SK-MEL-5 melanoma) | TGI (NCI-H226 lung) | TGI (OVCAR-3 ovarian) | TGI (MDA-MB-231 breast) | TGI (MCF7 breast) | TGI (BT-549 breast) | TGI (MOLT-4 leukemia) | TGI (A549 NSCLC) | TGI (HOP-62 NSCLC) | TGI (PC-3 prostate) | TGI (OVCAR-4 ovarian) | TGI (LOX IMVI melanoma) | TGI (HCC-2998 colon) | TGI (SK-MEL-28 melanoma) | TGI (CAKI-1 renal) | TGI (DU-145 prostate) | TGI (SF-268 CNS) | TGI (NCI-H460 lung) | TGI (786-0 renal) | TGI (NCI-H522 lung) | TGI (SW-620 colon) | TGI (UACC-62 melanoma) | TGI (HOP-92 NSCLC) | TGI (NCI/ADR-RES ovarian) | TGI (RXF 393 renal) | TGI (SK-OV-3 ovarian) | TGI (HL-60(TB) leukemia) | TGI (NCI-H23 lung) | TGI (COLO 205 colon) | TGI (EKVX NSCLC) | TGI (SF-295 CNS) | TGI (HCT-15 colon) | TGI (HT29 colon) | TGI (HCT-116 colon) | TGI (MDA-MB-435) | TGI (CCRF-CEM leukemia) | TGI (OVCAR-5 ovarian) | TGI (U251 CNS) | TGI (HS 578T breast) | TGI (M14 melanoma) | TGI (UO-31 renal) | TGI (OVCAR-8 ovarian) | TGI (SNB-19 CNS) | TGI (ACHN renal) | TGI (SK-MEL-2 melanoma) | TGI (UACC-257 melanoma) | TGI (SNB-75 CNS) | TGI (SF-539 CNS) | TGI (KM12 colon) | TGI (IGROV1 ovarian) | TGI (TK-10 renal)

Cc1cc(-c2nc3sc(C)cn3c2/C=N/N=C(N)N)c(C)s1
32.7 µM: TGI (RXF 393 renal)
4.12 µM: TGI (SK-MEL-28 melanoma)
28.9 µM: TGI (SF-268 CNS)
4.79 µM: TGI (MDA-MB-435)
8.64 µM: TGI (HOP-62 NSCLC)
28.3 µM: TGI (SN12C renal)
15.5 µM: TGI (PC-3 prostate)
21.5 µM: TGI (NCI-H460 lung)
9.62 µM: TGI (KM12 colon)
inactive: GI50 (SN12C renal) 14 µM | GI50 (SK-MEL-5 melanoma) 1.89 µM | GI50 (NCI-H226 lung) 20.8 µM | GI50 (OVCAR-3 ovarian) 2.04 µM | GI50 (MDA-MB-231 breast) 3.49 µM | GI50 (K-562 leukemia) > 100 µM | GI50 (MOLT-4 leukemia) > 100 µM | GI50 (A549 NSCLC) 21.5 µM | GI50 (HOP-62 NSCLC) 3.17 µM | GI50 (PC-3 prostate) 3.65 µM | GI50 (OVCAR-4 ovarian) 10.7 µM | GI50 (LOX IMVI melanoma) 13.3 µM | GI50 (HCC-2998 colon) 1.73 µM | GI50 (SK-MEL-28 melanoma) 2.02 µM | GI50 (CAKI-1 renal) 17.4 µM | GI50 (DU-145 prostate) 6.11 µM | GI50 (SF-268 CNS) 13.6 µM | GI50 (NCI-H460 lung) 6.18 µM | GI50 (786-0 renal) 8.68 µM | GI50 (SR leukemia) > 100 µM | GI50 (T-47D breast) 3.56 µM | GI50 (NCI-H522 lung) 25.7 µM | GI50 (SW-620 colon) 3.33 µM | GI50 (UACC-62 melanoma) 16.5 µM | GI50 (HOP-92 NSCLC) 3.03 µM | GI50 (NCI/ADR-RES ovarian) 14.6 µM | GI50 (RXF 393 renal) 15 µM | GI50 (SK-OV-3 ovarian) 20.9 µM | GI50 (HL-60(TB) leukemia) > 100 µM | GI50 (NCI-H23 lung) 14.6 µM | GI50 (COLO 205 colon) 4.76 µM | GI50 (EKVX NSCLC) 14.8 µM | GI50 (SF-295 CNS) 1.78 µM | GI50 (HCT-15 colon) 19.8 µM | GI50 (HT29 colon) 3.74 µM | GI50 (HCT-116 colon) 1.79 µM | GI50 (MDA-MB-435) 2.13 µM | GI50 (CCRF-CEM leukemia) 2.49 µM | GI50 (OVCAR-5 ovarian) 13.2 µM | GI50 (U251 CNS) 11.2 µM | GI50 (M14 melanoma) 1.7 µM | GI50 (UO-31 renal) 32.7 µM | GI50 (OVCAR-8 ovarian) 17.6 µM | GI50 (SNB-19 CNS) 18.2 µM | GI50 (ACHN renal) 18.7 µM | GI50 (SK-MEL-2 melanoma) 40.8 µM | GI50 (UACC-257 melanoma) 22.2 µM | GI50 (KM12 colon) 2.68 µM | GI50 (IGROV1 ovarian) 28.8 µM | GI50 (TK-10 renal) 6.12 µM
9.56 µM: TGI (OVCAR-3 ovarian)
20.2 µM: TGI (HT29 colon)
32.4 µM: TGI (CAKI-1 renal)
44.2 µM: TGI (UACC-257 melanoma)
40.8 µM: TGI (NCI-H226 lung)
8.21 µM: TGI (HOP-92 NSCLC)
16.3 µM: TGI (MDA-MB-231 breast)
18.6 µM: TGI (TK-10 renal)
5.06 µM: TGI (CCRF-CEM leukemia)
27.4 µM: TGI (OVCAR-4 ovarian)
3.24 µM: TGI (HCC-2998 colon)
> 100 µM: TGI (K-562 leukemia) | TGI (MOLT-4 leukemia) | TGI (SR leukemia) | TGI (NCI-H522 lung) | TGI (HL-60(TB) leukemia) | TGI (UO-31 renal) | TGI (SK-MEL-2 melanoma) | TGI (IGROV1 ovarian)
21.1 µM: TGI (786-0 renal)
28.2 µM: TGI (NCI-H23 lung)
25.5 µM: TGI (U251 CNS)
3.37 µM: TGI (HCT-116 colon)
18.4 µM: TGI (SW-620 colon)
3.85 µM: TGI (SF-295 CNS)
19 µM: TGI (COLO 205 colon)
23 µM: TGI (DU-145 prostate)
29.8 µM: TGI (LOX IMVI melanoma)
36.2 µM: TGI (SNB-19 CNS)
48.9 µM: TGI (A549 NSCLC)
43.6 µM: TGI (OVCAR-8 ovarian)
39.1 µM: TGI (SK-OV-3 ovarian)
3.11 µM: TGI (M14 melanoma)
40 µM: TGI (HCT-15 colon)
34.4 µM: TGI (ACHN renal)
30.6 µM: TGI (EKVX NSCLC)
13.8 µM: TGI (T-47D breast)
29.2 µM: TGI (NCI/ADR-RES ovarian)
28.1 µM: TGI (OVCAR-5 ovarian)
3.8 µM: TGI (SK-MEL-5 melanoma)
30.5 µM: TGI (UACC-62 melanoma)
